From US9861099B2, “Composition for enhancing plant disease control effect of monosaccharide” (MITSUI CHEMICALS AGRO, INC., priority 2013, dated 2018)

How the values were obtained:
Type in all cases: in vivo
[1] = system: Pseudoperonospora cubensis; test: Cucumber downy mildew (CDM) control test; conditions: for Evaluation Score CDM: Table 8: D-tagatose liquid preparation with assistant (5 parts), 10-fold dilution (D-tagatose 0.5%+assistant 0.5%), improvement vs D-tagatose only; for control effect against cucumber downy mildew: Test Example 10, D-tagatose only
[2] = system: Plasmopara viticola; test: Grape vine downy mildew (VDM) control test; conditions: for preventive value VDM: Table 9: monosaccharide 10% liquid preparation, no assistant, 10-fold dilution (monosaccharide 1%); for control effect against grape vine downy mildew: Test Example 10, D-tagatose only
[3] = system: Sphaerotheca cucurbitae; test: Cucumber powdery mildew (CPM) control test; conditions: for preventive value CPM: Table 9: monosaccharide 10% liquid preparation, no assistant, 10-fold dilution (monosaccharide 1%); for control effect against cucumber powdery mildew: Test Example 10, D-tagatose only
[4] = system: Phytophthora infestans; conditions: for preventive value LB: Table 9: monosaccharide 10% liquid preparation, no assistant, 10-fold dilution (monosaccharide 1%)
[5] = system: Botrytis cinerea; test: Tomato gray mold (GM) control test; conditions: for preventive value GM: Table 9: monosaccharide 10% liquid preparation, no assistant, 10-fold dilution (monosaccharide 1%)
Protocol: (GM: Gray Mold) Test plants (tomato variety: Oogata Fukuju) were planted followed by cultivating until three first leaves appeared. In the test, dilutions (5 ml/pot) obtained by diluting with distilled water so that each formula reached a prescribed concentration were sprayed. After inoculating the seedlings one day after spraying by spraying with 1×10^7 organisms/ml of conidia of Botrytis cinerea, the seedlings were allowed to stand for about 48 hours in an inoculation room at a room temperature of 20° C. to 23° C. to promote the onset of disease. Disease development was investigated 2 days after inoculation, and the effects thereof were evaluated. Disease development was evaluated using the following indicators for disease control tests evaluated according to the methods described above. Furthermore, preventive values were calculated based on the disease development.

[6] = system: Magnaporthe grisea; conditions: for preventive value B: Table 9: monosaccharide 10% liquid preparation, no assistant, 10-fold dilution (monosaccharide 1%)
[7] = system: Venturia inaequalis; test: Apple scab (AS) control test; conditions: for preventive value AS: Table 9: monosaccharide 10% liquid preparation, no assistant, 10-fold dilution (monosaccharide 1%)
Protocol: (AS: Apple Scab) Test plants (apple variety: Ohrin) were planted followed by cultivating until four first leaves appeared. In the test, dilutions (5 ml/pot) obtained by diluting with distilled water so that each formula reached a prescribed concentration were sprayed. After inoculating the seedlings one day after spraying by spraying with 1×10^5 organisms/ml of conidia of Venturia inaequalis, the seedlings were allowed to stand for about 24 hours in an inoculation room at a room temperature of 18° C. to 20° C. to promote the onset of disease. Disease development was investigated 10 days after inoculation, and the effects thereof were evaluated. Disease development was evaluated using the following indicators for disease control tests evaluated according to the methods described above. Furthermore, preventive values were calculated based on the disease development.

[8] = system: Rhizoctonia solani AGI-IA; test: Rice sheath blight (SB) control test; conditions: Table 9: monosaccharide 10% liquid preparation, no assistant, 10-fold dilution (monosaccharide 1%)
Protocol: (SB: Sheath Blight) Test plants (rice variety: Sachikaze) were planted followed by cultivating until the third leaf appeared. In the test, dilutions (5 ml/pot) obtained by diluting with distilled water so that each formula reached a prescribed concentration were sprayed. After inoculating the seedlings one day after spraying with clumps of Rhizoctonia solani AGI-IA cultured for 14 days in oat medium, the seedlings were allowed to stand for about 24 hours in an inoculation room at a room temperature of 28° C. to promote the onset of disease. Disease development was investigated 14 days after inoculation, and the effects thereof were evaluated. Disease development was evaluated using the following indicators for disease control tests evaluated according to the methods described above. Furthermore, preventive values were calculated based on the disease development.

[9] = system: Ralstonia solanacearum; conditions: Table 9: monosaccharide 10% liquid preparation, no assistant, 10-fold dilution (monosaccharide 1%)
[10] = system: Puccinia recondita; test: Wheat brown rust (WR) control test
[11] = system: Blumeria graminis f sp. hordei; test: Barley powdery mildew (BPM) control test; conditions: Test Example 10, D-tagatose only
Protocol: (BPM: Barley Powdery Mildew) Test plants (barley variety: Sekishinryoku) were planted followed by cultivating until the second leaf appeared. In the test, dilutions (5 ml/pot) obtained by diluting with distilled water so that each formula reached a prescribed concentration were sprayed. After inoculating the seedlings one day after spraying by shaking off conidia of Blumeria graminis f sp. hordei onto the seedlings, disease development was investigated 7 days after, and the effects thereof were evaluated. Disease development was evaluated using the following indicators for disease control tests evaluated according to the methods described above. Furthermore, preventive values were calculated based on the disease development.

[12] = system: Phakopsora ampelopsidis; test: Grape vine rust (VR) control test; conditions: Test Example 10, D-tagatose only, treatment concentration 5%
Protocol: (VR: Vine Rust) Test plants (grape variety: Neomuscat) were planted followed by cultivating until three to four first leaves appeared. In the test, dilutions (5 ml/pot) obtained by diluting with distilled water so that each formula reached a prescribed concentration were sprayed. After inoculating the seedlings one day after spraying by spraying with 1×10^7 organisms/ml of uredospores of Phakopsora ampelopsidis, the seedlings were allowed to stand for about 24 hours in an inoculation room at a room temperature of 20° C. to 23° C. to promote the onset of disease. Disease development was investigated 12 days after inoculation, and the effects thereof were evaluated. Disease development was evaluated using the following indicators for disease control tests evaluated according to the methods described above. Furthermore, preventive values were calculated based on the disease development.

[13] = system: Phakopsora pachyrhizi; test: Soybean rust (SR) control test; conditions: Test Example 10, D-tagatose only, treatment concentration 5%
[14] = system: Colletotrichum orbiculare; test: Cucumber anthracnose (CA) control test; conditions: Test Example 10, D-tagatose only, treatment concentration 5%
Protocol: (CA: Cucumber Anthracnose) Test plants (cucumber variety: Sagami Hanjiro) were planted followed by cultivating until the first leaf appeared. In the test, dilutions (5 ml/pot) obtained by diluting with distilled water so that each formula reached a prescribed concentration were sprayed. After inoculating the seedlings one day after spraying by spraying with 1×10^7 organisms/ml of conidia of Colletotrichum orbiculare, the seedlings were allowed to stand for about 24 hours in an inoculation room at a room temperature of 20° C. to 23° C. to promote the onset of disease. Disease development was investigated 10 days after inoculation, and the effects thereof were evaluated. Disease development was evaluated using the following indicators for disease control tests evaluated according to the methods described above. Furthermore, preventive values were calculated based on the disease development.

[15] = system: Septoria tritici; test: Wheat septoria leaf blotch (SLB) control test; conditions: Test Example 10, D-tagatose only, treatment concentration 5%
Protocol: (SLB: Septoria Leaf Blotch) Test plants (wheat variety: Norin 61) were planted followed by cultivating until the second leaf appeared. In the test, dilutions (5 ml/pot) obtained by diluting with distilled water so that each formula reached a prescribed concentration were sprayed. After inoculating the seedlings one day after spraying by spraying with 1×10^7 organisms/ml of conidia of Septoria tritici, the seedlings were allowed to stand for about 24 hours in an inoculation room at a room temperature of 18° C. to promote the onset of disease. Disease development was investigated 14 days after inoculation, and the effects thereof were evaluated. Disease development was evaluated using the following indicators for disease control tests evaluated according to the methods described above. Furthermore, preventive values were calculated based on the disease development.

[16] = system: Pythium aphanidermatum; test: Pythium red blight of bentgrass, soil irrigation treatment; conditions: Comparative Example, main agent only (D-tagatose 80 parts), no assistant; 100-fold dilution, soil irrigation 3 L/m^2; five days after inoculation
Protocol: The effects of the D-tagatose water-soluble powders containing anionic surfactant prepared in Example 11 on grass red blight were evaluated. Test plants (grass variety: Bentgrass) were planted, and three weeks later, cut to a height of 1 cm prior to use in the test. In the test, after inoculating the seedlings with Pythium aphanidermatum preliminarily cultured in wheat bran medium, dilutions obtained by diluting each formula 100-fold with well water were used to treat soil by irrigating at 3 L/m^2 (treatment concentrations: D-tagatose 0.8%+assistant 0.2%). After investigating the onset of disease five days after inoculation, control values were calculated from the diseased area. Effects were evaluated using the same evaluation method as Test Example 10.

[17] = system: Pythium ultimum; test: Cabbage damping-off, soil irrigation treatment; conditions: formula containing D-tagatose only, 80-fold dilution (D-tagatose 1%)
Protocol: The effects of the D-tagatose water-soluble powders containing anionic surfactant prepared in Example 11 on […] were evaluated. Test soil was inoculated by contacting with Pythium ultimum preliminarily cultured in wheat bran medium followed by planting the test plants (cabbage variety: Shikidori) therein. The soil was treated by irrigating at 3 L/m^2 with the formulations which had been 80-fold diluted with well water (treatment concentrations: D-tagatose 1%+assistant 0.25%). […] Effects were evaluated using the same evaluation method as Test Example 1. The protective value with respect to cabbage damping-off of a formula containing D-tagatose only was 29.9.

[18] = Test Example 12, D-tagatose 5 parts + Assistant 1 5 parts, 10-fold dilution (D-tagatose 0.5% + Assistant 1 0.5%)
[19] = formula containing D-tagatose only, treatment concentration 0.8%
[20] = Test Example 10, D-tagatose only, treatment concentration 5%

For `O=C(CO)[C@H](O)[C@@H](O)[C@H](O)CO` [D-sorbose], which “Evaluation Score CDM” value [1] is on record?
The value was 2 (Improvement in preventive value of 10 to less than 20).

And the “preventive value VDM” value [2]?
The value was “(0)”.

And the “preventive value CPM” value [3]?
Its value is “(17)”.

What about the “preventive value LB” value [4] of the same compound?
Its value is “(33)”.

What about the “preventive value GM” value [5] of the same compound?
Its value is “(33)”.

And the “preventive value B” value [6]?
The value was “(17)”.

What about the “preventive value AS” value [7] of the same compound?
The value was “(33)”.

What about the “preventive value SB” value [8] of the same compound?
The value was “(40)”.

`O=C[C@H](O)[C@@H](O)[C@@H](O)[C@H](O)CO` [D-galactose] was tested. Which “Evaluation Score CDM” value [1] did it give?
Its value is 1 (Improvement in preventive value of 1 to less than 10).

What about the “preventive value VDM” value [2] of the same compound?
The value was “(0)”.

What about the “preventive value CPM” value [3] of the same compound?
The value was “(0)”.

And the “preventive value LB” value [4]?
Its value is “(0)”.

What about the “preventive value GM” value [5] of the same compound?
The value was “(33)”.

And the “preventive value B” value [6]?
The value was “(17)”.

And the “preventive value AS” value [7]?
Its value is “(66)”.

And the “preventive value SB” value [8]?
The value was “(60)”.

And the “preventive value TBW” value [9]?
The value was “(25)”.

How did the “control effect against cucumber downy mildew” value ([1]; treatment concentration 0.8%) turn out when `O=C(CO)[C@@H](O)[C@@H](O)[C@H](O)CO` [D-tagatose, reference compound] was run?
Its value is “not adequate”.

And the “control effect against cucumber downy mildew” value ([1]; treatment concentration 5%)?
The value was “high control effect”.

What about the “Protective Value Index CDM, Assistant 1” value [1, 18] of the same compound?
The value was 2 (Preventive value of 60 to less than 80).

And the “preventive value, cucumber downy mildew” value ([1]; formula containing D-tagatose only, treatment concentration 0.4%)?
Its value is “about 50 (40 to 60)”.

What about the “control effect against grape vine downy mildew” value ([2]; treatment concentration 0.8%) of the same compound?
Its value is “not adequate”.

And the “control effect against grape vine downy mildew” value ([2]; treatment concentration 5%)?
The value was “high control effect”.

And the “Protective Value Index VDM, Assistant 1” value [2, 18]?
Its value is 1 (Preventive value of 30 to less than 60).

What about the “preventive value, grape vine downy mildew” value [2, 19] of the same compound?
The value was “about 40 (30 to 50)”.

And the “control effect against cucumber powdery mildew” value ([3]; treatment concentration 0.8%)?
Its value is “not adequate”.

And the “control effect against cucumber powdery mildew” value ([3]; treatment concentration 5%)?
The value was “high control effect”.

What about the “Protective Value Index CPM, Assistant 1” value [3, 18] of the same compound?
Its value is 2 (Preventive value of 60 to less than 80).

What about the “preventive value, cucumber powdery mildew” value [3, 19] of the same compound?
Its value is “about 50 (40 to 60)”.

And the “effects against wheat rust” value [10, 20]?
The value was “not adequate”.

What about the “preventive value, wheat rash” value [10, 19] of the same compound?
The value was “about 5 (0 to 10)”.

What about the “effects against tomato late blight” value [4, 20] of the same compound?
Its value is “not adequate”.

What about the “control effect against barley powdery mildew” value ([11]; treatment concentration 0.8%) of the same compound?
Its value is “not adequate”.

What about the “control effect against barley powdery mildew” value ([11]; treatment concentration 5%) of the same compound?
Its value is “high control effect”.

And the “effects against grape vine rust” value [12]?
Its value is “not adequate”.

What about the “effects against soybean rust” value [13] of the same compound?
Its value is “not adequate”.

And the “effects against tomato gray mold” value [5, 20]?
Its value is “not adequate”.

What about the “effects against rice blast” value [6, 20] of the same compound?
The value was “not adequate”.

What about the “effects against cucumber anthracnose” value [14] of the same compound?
The value was “not adequate”.

And the “effects against apple scab” value [7, 20]?
The value was “not adequate”.

What about the “effects against wheat speckled leaf blotch” value [15] of the same compound?
The value was “not adequate”.

And the “Preventive Value Indices, bentgrass red blight” value [16]?
Its value is 1 (Preventive value of 30 to less than 60).

And the “protective value, cabbage damping-off” value [17]?
Its value is 29.9.

Which “Evaluation Score CDM” value [1] does the source give for `O=C(CO)[C@H](O)[C@H](O)[C@H](O)CO` [D-psicose] here?
Its value is 3 (Improvement in preventive value of 20 to less than 30).

What about the “preventive value VDM” value [2] of the same compound?
Its value is “(0)”.

What about the “preventive value CPM” value [3] of the same compound?
Its value is “(17)”.

What about the “preventive value LB” value [4] of the same compound?
Its value is “(47)”.

And the “preventive value GM” value [5]?
The value was “(50)”.

And the “preventive value B” value [6]?
Its value is “(50)”.

What about the “preventive value AS” value [7] of the same compound?
The value was “(50)”.

What about the “preventive value SB” value [8] of the same compound?
Its value is “(40)”.

Which “preventive value VDM” value [2] does the source give for `OC[C@H]1OC(O)[C@H](O)[C@H](O)[C@@H]1O` (stereo partly drawn) [D-allose] here?
The value was “(40)”.

And the “preventive value CPM” value [3]?
Its value is “(17)”.

And the “preventive value LB” value [4]?
The value was “(60)”.

And the “preventive value GM” value [5]?
Its value is “(33)”.

What about the “preventive value B” value [6] of the same compound?
Its value is “(40)”.

What about the “preventive value AS” value [7] of the same compound?
Its value is “(66)”.

What about the “preventive value SB” value [8] of the same compound?
Its value is “(60)”.
